In patent EP0253650A2, “Improvements relating to benzothiophene derivatives” (ELI LILLY AND COMPANY, priority 1986, dated 1988):

Tested on: guinea pigs
Assay: Antigen induced anaphylaxis in guinea pigs (ovalbumin aerosol challenge of sensitized animals)
Format: in vivo
Details: percent inhibition of anaphylaxis (severity index vs placebo), two hours prior to aerosol challenge
Experimental: Following the general procedure taught by Andersson, Brit. J. Pharmacol., 69, 467 (1980), mixed sex Hartley strain guinea pigs (250-300 g) were sensitized to ovalbumin by a single injection of 1 mcg of ovalbumin mixed with 50 mg of aluminum hydroxide per animal. These animals were used 21 to 26 days later for aerosol challenge with ovalbumin.
Anaphylaxis was induced by exposure to an aerosol of 10 mg of ovalbumin per milliliter of water for 10 minutes delivered by a Tri-R venturi nebulizer, particle size 2 to 5 micron diameter, at a delivery rate of 0.4 ml of solution per minute. The guinea pigs were placed in specially constructed chamber for exposure to the aerosol. The aerosol was introduced from the bottom of the chamber and exhausted at the top. A baffle above the chamber inlet port provided even distribution of the aerosol throughout the chamber. The animals were supported above the inlet on a wire mesh disc. The chamber was under slight negative pressure to enhance the exhaust of the aerosol which was passed through a calcium chloride trap followed by a super-cooled condenser trap.
Groups of five guinea pigs were treated with the compounds of this invention, clinical anti-asthmatic agents, or placebo (vehicle only) two hours prior to the aerosol challenge. All the animals also received 3 mg/kg pyrillamine orally two hours prior to the aerosol challenge in order to blunt the histamine component of the anaphylaxis. The compounds were administered orally as a suspension in 10% acacia or intraperitoneally in 10% acacia.
The number of animals that responded to the aerosol challenge for each of the above parameters as well as the time for the response to occur were recorded. The data were analyzed by comparing the severity index (the sum of the number of animals that coughed, collapsed, and/or died) between the treated and placebo group of guinea pigs. Thus, the maximum severity index for each group of five guinea pigs is 15. On the average, the severity index for the placebo group was 10-12. The percent inhibition of anaphylaxis was determined by the following formula: [formula] where Sd is the severity index for the drug treated animals and Sp is the severity index of the placebo treated animals.

## CCOc1cc2cc(-c3nnn[nH]3)sc2cc1OCC [Example 6, 5-(5,6-Diethoxybenzo[b]thien-2-yl)-1H-tetrazole]
Dose 50 mg/kg, P.O.
  Percent Inhibition: 43%

## CCOc1cc2cc(C(=O)N(CC)CC)sc2cc1OCC [Example 3, N,N-Diethyl-5,6-diethoxybenzo[b]thiophene-2-carboxamide]
Dose 10 mg/kg, I.P.
  Percent Inhibition: 44%
Dose 30 mg/kg, I.P.
  Percent Inhibition: 89%
Dose 50 mg/kg, I.P.
  Percent Inhibition: 82%
Dose 50 mg/kg, P.O.
  Percent Inhibition: 38%

## CCOc1cc2cc(CO)sc2cc1OCC [Example 7, 5,6-Diethoxybenzo[b]thiophene-2-methanol]
Dose 30 mg/kg, I.P.
  Percent Inhibition: 89%
Dose 50 mg/kg, I.P.
  Percent Inhibition: 74%
Dose 50 mg/kg, P.O.
  Percent Inhibition: 68%

## CCOc1cc2cc(C#N)sc2cc1OCC [Example 5, 5,6-Diethoxybenzo[b]thiophene-2-carbonitrile]
Dose 30 mg/kg, I.P.
  Percent Inhibition: 69%
Dose 50 mg/kg, I.P.
  Percent Inhibition: 74-84%
Dose 50 mg/kg, P.O.
  Percent Inhibition: 22%

## CCOc1cc2cc(C(=O)Nc3nnn[nH]3)sc2cc1OCC [Example 4, 5,6-Diethoxy-N-1H-tetrazol-5-ylbenzo[b]thiophene-2-carboxamide]
Dose 50 mg/kg, P.O.
  Percent Inhibition: 56%
